Results: the CombiSolv-Exp solvation set (Vermeire and Green 2021)

Experiment: solvent given as SMILES

In the case of `Cc1cccc(Nc2ccccc2C(=O)O)c1C`, the “solvation free energy, 298 K” value (in O) is reported as -6.78 kcal/mol.

In the case of `CC=O`, the “solvation free energy, 298 K” value (in CC(=O)N(C)C) is reported as -3.22 kcal/mol, the “solvation free energy, 298 K” value (in CC(C)CCCC(C)CCCC(C)CCCCC(C)CCCC(C)CCCC(C)C) is reported as -2.26 kcal/mol and the “solvation free energy, 298 K” value (in CCCCCCCCCCCCCCCC) is reported as -1.51 kcal/mol. The “solvation free energy, 298 K” value (in CCCCCCCCO) was -3.65 kcal/mol, the “solvation free energy, 298 K” value (in CCCCN(C=O)CCCC) was -2.78 kcal/mol and the “solvation free energy, 298 K” value (in CCN1CCCC1=O) was -3.05 kcal/mol. The “solvation free energy, 298 K” value (in CCN(CC)C(C)=O) was -3.06 kcal/mol, the “solvation free energy, 298 K” value (in CCNC(C)=O) was -2.73 kcal/mol and the “solvation free energy, 298 K” value (in CN1CCCCC1=O) was -3.04 kcal/mol. For the same molecule, the “solvation free energy, 298 K” value (in CNC(C)=O) was -2.85 kcal/mol, the “solvation free energy, 298 K” value (in CO) was -4.83 kcal/mol and the “solvation free energy, 298 K” value (in O) was -3.44 kcal/mol.

In the case of `O=Cc1ccncc1`, the “solvation free energy, 298 K” value (in O) is reported as -7 kcal/mol.

In the case of `O=C(O)c1cc([N+](=O)[O-])cc([N+](=O)[O-])c1`, the “solvation free energy, 298 K” value (in C1CCOC1) is reported as -14.9 kcal/mol, the “solvation free energy, 298 K” value (in C1COCCO1) is reported as -14.6 kcal/mol and the “solvation free energy, 298 K” value (in CC(C)CCO) is reported as -13.8 kcal/mol. The “solvation free energy, 298 K” value (in CC(C)CO) was -13.7 kcal/mol, the “solvation free energy, 298 K” value (in CC(C)O) was -14.1 kcal/mol and the “solvation free energy, 298 K” value (in CC(C)OC(C)C) was -13 kcal/mol. The “solvation free energy, 298 K” value (in CCC(C)O) was -13.9 kcal/mol, the “solvation free energy, 298 K” value (in CCCC(C)O) was -13.9 kcal/mol and the “solvation free energy, 298 K” value (in CCCCCCCCCCO) was -13.6 kcal/mol. The “solvation free energy, 298 K” value (in CCCCCCCCO) was -13.7 kcal/mol, the “solvation free energy, 298 K” value (in CCCCCCCO) was -13.7 kcal/mol and the “solvation free energy, 298 K” value (in CCCCCCO) was -13.8 kcal/mol. The “solvation free energy, 298 K” value (in CCCCCO) was -13.9 kcal/mol, the “solvation free energy, 298 K” value (in CCCCCOC(C)=O) was -13.7 kcal/mol and the “solvation free energy, 298 K” value (in CCCCO) was -14 kcal/mol. The “solvation free energy, 298 K” value (in CCCCOC(C)=O) was -13.9 kcal/mol, the “solvation free energy, 298 K” value (in CCCO) was -14.2 kcal/mol and the “solvation free energy, 298 K” value (in CCO) was -14.4 kcal/mol. The “solvation free energy, 298 K” value (in CCOC(C)=O) was -14.2 kcal/mol, the “solvation free energy, 298 K” value (in CCOCC) was -13.9 kcal/mol and the “solvation free energy, 298 K” value (in CN(C)C=O) was -14.8 kcal/mol. The “solvation free energy, 298 K” value (in O) was -11.3 kcal/mol.

In the case of `CC(C)C=O`, the “solvation free energy, 298 K” value (in CC(=O)N(C)C) is reported as -4.04 kcal/mol, the “solvation free energy, 298 K” value (in CCCCN(C=O)CCCC) is reported as -3.78 kcal/mol and the “solvation free energy, 298 K” value (in CCOC(C)=O) is reported as -4.05 kcal/mol. The “solvation free energy, 298 K” value (in CN1CCCC1=O) was -3.79 kcal/mol, the “solvation free energy, 298 K” value (in CN1CCCCC1=O) was -3.92 kcal/mol and the “solvation free energy, 298 K” value (in CN(C)C=O) was -4.09 kcal/mol. The “solvation free energy, 298 K” value (in CNC(C)=O) was -3.68 kcal/mol, the “solvation free energy, 298 K” value (in O) was -2.86 kcal/mol and the “solvation free energy, 298 K” value (in O=CN1CCOCC1) was -3.63 kcal/mol.

With `O=C(O)CCCCCCCCC(=O)O` the “solvation free energy, 298 K” value (in CCC(C)O) was -17 kcal/mol, the “solvation free energy, 298 K” value (in CCCCCCO) was -16.7 kcal/mol and the “solvation free energy, 298 K” value (in CCCCCO) was -16.9 kcal/mol. The “solvation free energy, 298 K” value (in CCCCO) was -17.1 kcal/mol and the “solvation free energy, 298 K” value (in CCCO) was -17.2 kcal/mol.

With `C=CCCC` the “solvation free energy, 298 K” value (in C=CCCCCCCCCCCCCCC) was -2.77 kcal/mol, the “solvation free energy, 298 K” value (in CC#N) was -2.5 kcal/mol and the “solvation free energy, 298 K” value (in CC(=O)N(C)C) was -2.35 kcal/mol. For the same molecule, the “solvation free energy, 298 K” value (in CCC#N) was -2.86 kcal/mol, the “solvation free energy, 298 K” value (in CCC(C)=O) was -2.88 kcal/mol and the “solvation free energy, 298 K” value (in CCCC#N) was -2.56 kcal/mol. The “solvation free energy, 298 K” value (in CCCCC(CC)COC(=O)CCCCC(=O)OCC(CC)CCCC) was -2.66 kcal/mol, the “solvation free energy, 298 K” value (in CCCCCCC) was -3.15 kcal/mol and the “solvation free energy, 298 K” value (in CCCCCCCC) was -3.1 kcal/mol. The “solvation free energy, 298 K” value (in CCCCCCCCO) was -2.63 kcal/mol, the “solvation free energy, 298 K” value (in CCCCO) was -2.65 kcal/mol and the “solvation free energy, 298 K” value (in CCCCOC(=O)c1ccccc1C(=O)OCCCC) was -2.7 kcal/mol. For the same molecule, the “solvation free energy, 298 K” value (in CCN1CCCC1=O) was -2.46 kcal/mol, the “solvation free energy, 298 K” value (in CCN(CC)C(C)=O) was -2.62 kcal/mol and the “solvation free energy, 298 K” value (in CCNC(C)=O) was -2.46 kcal/mol. For the same molecule, the “solvation free energy, 298 K” value (in CCNC=O) was -2.26 kcal/mol, the “solvation free energy, 298 K” value (in CCOC(=O)c1ccccc1C(=O)OCC) was -2.33 kcal/mol and the “solvation free energy, 298 K” value (in CCOC(C)=O) was -2.96 kcal/mol. For the same molecule, the “solvation free energy, 298 K” value (in CN1CCCC1=O) was -2.25 kcal/mol, the “solvation free energy, 298 K” value (in CN1CCCCC1=O) was -2.41 kcal/mol and the “solvation free energy, 298 K” value (in CN(C)C=O) was -2.32 kcal/mol. For the same molecule, the “solvation free energy, 298 K” value (in CNC(C)=O) was -2.22 kcal/mol, the “solvation free energy, 298 K” value (in CNC=O) was -1.98 kcal/mol and the “solvation free energy, 298 K” value (in COC(C)=O) was -2.88 kcal/mol. For the same molecule, the “solvation free energy, 298 K” value (in Cc1ccc(C)cc1) was -3.11 kcal/mol, the “solvation free energy, 298 K” value (in ClCCCl) was -2.86 kcal/mol and the “solvation free energy, 298 K” value (in Clc1ccccc1) was -3.01 kcal/mol. For the same molecule, the “solvation free energy, 298 K” value (in N#Cc1ccccc1) was -2.61 kcal/mol, the “solvation free energy, 298 K” value (in O) was 1.68 kcal/mol and the “solvation free energy, 298 K” value (in O=C1CCCCC1) was -2.77 kcal/mol. The “solvation free energy, 298 K” value (in O=C1CCCO1) was -1.95 kcal/mol, the “solvation free energy, 298 K” value (in O=CN1CCOCC1) was -1.84 kcal/mol and the “solvation free energy, 298 K” value (in OCCOCCO) was -1.23 kcal/mol.

In the case of `CC(C)(C)Cl`, the “solvation free energy, 298 K” value (in Brc1cccc2ccccc12) is reported as -3.15 kcal/mol, the “solvation free energy, 298 K” value (in Brc1ccccc1) is reported as -3.44 kcal/mol and the “solvation free energy, 298 K” value (in C1CCCCC1) is reported as -3.64 kcal/mol. The “solvation free energy, 298 K” value (in C1CCOCC1) was -3.82 kcal/mol, the “solvation free energy, 298 K” value (in C1COCCO1) was -3.36 kcal/mol and the “solvation free energy, 298 K” value (in C=CCCCCCCCCCCCCCC) was -3.07 kcal/mol. The “solvation free energy, 298 K” value (in CC(=O)N(C)C) was -3.1 kcal/mol, the “solvation free energy, 298 K” value (in CC(=O)OCc1ccccc1) was -3.28 kcal/mol and the “solvation free energy, 298 K” value (in CC(C)(C)O) was -2.95 kcal/mol. The “solvation free energy, 298 K” value (in CC(C)=O) was -3.46 kcal/mol, the “solvation free energy, 298 K” value (in CC(C)CC(C)(C)C) was -3.29 kcal/mol and the “solvation free energy, 298 K” value (in CC(C)OC(C)C) was -3.53 kcal/mol. For the same molecule, the “solvation free energy, 298 K” value (in CC(O)C(C)O) was -2.37 kcal/mol, the “solvation free energy, 298 K” value (in CC(O)CCO) was -2.14 kcal/mol and the “solvation free energy, 298 K” value (in CC(O)CO) was -2.29 kcal/mol. For the same molecule, the “solvation free energy, 298 K” value (in CCC(C)=O) was -3.66 kcal/mol, the “solvation free energy, 298 K” value (in CCC(O)CO) was -2.76 kcal/mol and the “solvation free energy, 298 K” value (in CCCCCC) was -3.43 kcal/mol. For the same molecule, the “solvation free energy, 298 K” value (in CCCCCCC) was -3.47 kcal/mol, the “solvation free energy, 298 K” value (in CCCCCCCC) was -3.35 kcal/mol and the “solvation free energy, 298 K” value (in CCCCCCO) was -3.14 kcal/mol. For the same molecule, the “solvation free energy, 298 K” value (in CCCCCO) was -3.23 kcal/mol, the “solvation free energy, 298 K” value (in CCCCO) was -3.08 kcal/mol and the “solvation free energy, 298 K” value (in CCO) was -3.22 kcal/mol. For the same molecule, the “solvation free energy, 298 K” value (in CCOC(C)=O) was -3.66 kcal/mol, the “solvation free energy, 298 K” value (in CCOCC) was -3.38 kcal/mol and the “solvation free energy, 298 K” value (in CN1CCCC1=O) was -2.97 kcal/mol. The “solvation free energy, 298 K” value (in CN(C)C=O) was -3.15 kcal/mol, the “solvation free energy, 298 K” value (in CNC=O) was -3.02 kcal/mol and the “solvation free energy, 298 K” value (in CO) was -3.11 kcal/mol. For the same molecule, the “solvation free energy, 298 K” value (in COC(C)(C)C) was -3.7 kcal/mol, the “solvation free energy, 298 K” value (in COCCO) was -3.3 kcal/mol and the “solvation free energy, 298 K” value (in Cc1ccc(C)cc1) was -3.58 kcal/mol. For the same molecule, the “solvation free energy, 298 K” value (in ClC(Cl)(Cl)Cl) was -3.66 kcal/mol, the “solvation free energy, 298 K” value (in ClCCCl) was -3.69 kcal/mol and the “solvation free energy, 298 K” value (in Clc1ccccc1) was -3.56 kcal/mol. The “solvation free energy, 298 K” value (in N#Cc1ccccc1) was -3.15 kcal/mol, the “solvation free energy, 298 K” value (in O) was 1.09 kcal/mol and the “solvation free energy, 298 K” value (in O=C1CCCCC1) was -3.64 kcal/mol. For the same molecule, the “solvation free energy, 298 K” value (in OCCO) was -1.8 kcal/mol, the “solvation free energy, 298 K” value (in OCCOCCO) was -2.39 kcal/mol and the “solvation free energy, 298 K” value (in OCCOCCOCCO) was -2.49 kcal/mol. The “solvation free energy, 298 K” value (in c1ccc2ncccc2c1) was -3.18 kcal/mol and the “solvation free energy, 298 K” value (in c1ccccc1) was -3.93 kcal/mol.
